# Measured values taken from paper PMC12040169 (PLOS Biology, 2025).
# Assay: in vitro
# Details: human, hela cells, % viability
row,Structure (SMILES),"viability at 28.5 h, 10 µM [%]"
1,COc1ccc(-c2nc(NC(=O)c3cccc(S(C)(=O)=O)c3)cnc2-c2ccc(F)cc2)cc1 [CBK037110],100
2,OCc1cccc(-c2cc(NCc3ccccc3)n3nccc3n2)c1 [CBK037113],95.6
3,CCSc1ccc(-c2cc(N(C)c3cccc(C)c3)n3nccc3n2)cc1 [CBK037115],100
4,CCCC/C=C/c1nccnc1NCc1ccco1 [CBK037116],105
5,CC(C)[C@@H](CO)Nc1cc(-c2cccc(Br)c2)nc2ccnn12 [CBK037117],93.9
6,COc1ccc(Nc2cc(-c3cccc(NC(C)=O)c3)ncn2)cn1 [CBK037125],95.1
7,OCCN1CCN(c2cc(N3CCN(c4ccccn4)CC3)n3nccc3n2)CC1 [CBK037129],100
8,CN(C)CCNC(=O)c1cccc(-c2cc(N3CCCN(C)CC3)n3nccc3n2)c1 [CBK037143],86.2
9,CC(=O)Nc1cccc(-c2cc(NCc3ccccc3)n3nccc3n2)c1 [CBK037153],97.2
10,CN1CCN(c2cc(NCC(c3cccnc3)N(C)C)nc3ccnn23)CC1 (stereo not drawn) [CBK037157],106
11,COc1cc(Nc2cncc(-c3ccccc3CO)n2)cc(OC)c1OC [CBK037160],95.4
12,COc1ccc(Nc2cc(-c3ccccc3OC)ncn2)cn1 [CBK037176],88.9
13,COc1cc(-c2cc(N(C)CCN(C)C)n3nccc3n2)cc(OC)c1OC [CBK037181],110
14,Cc1cc(-c2nccnc2N2CCN(CCN(C)C)CC2)cc(C)c1O [CBK037184],105
15,O=C(Cc1ccccc1Oc1ccccc1)Nc1cnc(-c2ccc(F)cc2)c(-c2ccco2)n1 [CBK037194],92.6
16,c1cncc(-c2cncc(NCC3CCOCC3)n2)c1 [CBK037195],92.7
17,O=C(CSc1ccccc1)Nc1cnc(-c2ccc(F)cc2)c(-c2ccco2)n1 [CBK037196],101
18,Cc1cccc(-c2ncc(NC(=O)CCc3cccc(Cl)c3)nc2-c2cccnc2)c1 [CBK037201],97.2
19,c1cncc(-c2nccnc2NCc2ccco2)c1 [CBK037204],102
20,COc1cc(CNc2cc(-c3ccc(F)c(Cl)c3)nc3ccnn23)cc(OC)c1OC [CBK037209],107
21,CN(CC(=O)Nc1cnc(-c2ccc(F)cc2)c(-c2ccco2)n1)S(=O)(=O)c1ccccc1 [CBK037214],100
22,Clc1cc(NCCc2c[nH]c3ccccc23)n2nccc2n1 [CBK037218],40.6
23,CN(C)CCN(C)c1cc(-c2ccc(F)c(Cl)c2)nc2ccnn12 [CBK037230],90.4

row,Structure (SMILES),"viability at 28.5 h, 10 µM [%]"
1,Clc1cccc(-c2cc(NCc3cccs3)n3nccc3n2)c1 [CBK037238],105
2,COc1ccc(C(=O)OC(C)(C)C)c(-c2cncc(N3CCN(CCO)CC3)n2)c1 [CBK037239],101
3,CC(C)[C@@H](CO)Nc1cc(Cl)nc2ccnn12 [CBK037242],96.2
4,COc1ccc(-c2cc(N3CCCN(C)CC3)n3nccc3n2)cc1 [CBK037244],106
5,CN(C)C(CNc1cncc(-c2cccc(Cl)c2)n1)c1cccnc1 (stereo not drawn) [CBK037247],113
6,CC(C)[C@@H](CO)Nc1cncc(-c2cccc(Cl)c2)n1 [CBK037261],102
7,COc1cc(-c2nccnc2NCCCO)cc(OC)c1OC [CBK037274],105
8,FC(F)(F)c1cc(-c2cn3ccnc3c(NC3CCOCC3)n2)cc(C(F)(F)F)c1 [CBK037278],107
9,Clc1cccc(-c2cncc(N3CCN(Cc4ccccn4)CC3)n2)c1 [CBK037282],99.5
10,c1cncc(-c2nccnc2NCCCN2CCOCC2)c1 [CBK037286],107
11,FC(F)(F)c1cccc(-c2nccnc2NCCCN2CCOCC2)c1 [CBK037288],97.6
12,CN(C)C(CNc1nccnc1-c1ccccc1F)c1cccnc1 (stereo not drawn) [CBK037290],101
13,FC(F)(F)c1cccc(-c2nccnc2NCc2cccs2)c1 [CBK037298],105
14,CC(=O)c1ccc(-c2nccnc2NCCc2ccncc2)s1 [CBK037300],99.9
15,Oc1ccc(-c2nccnc2NCCc2ccncc2)cc1 [CBK037302],94.3
16,COc1cc(-c2nccnc2NCCc2ccccn2)cc(OC)c1OC [CBK037307],91.4
17,c1cn2cc(-c3ccc(N4CCOCC4)cc3)nc(NCC3CCOCC3)c2n1 [CBK037308],96.3
18,OCc1ccccc1-c1cncc(NCC2CCOCC2)n1 [CBK037309],113
19,Cc1cccc(C)c1-c1cn2ccnc2c(NC2CCOCC2)n1 [CBK037311],91.6
20,CCNc1nccnc1-c1ccccc1Cl [CBK037313],79.9
21,COCCNc1nc(-c2cccc3cccnc23)cn2ccnc12 [CBK037314],95.3
22,c1coc(-c2nccnc2NCCc2c[nH]c3ccccc23)c1 [CBK037316],95.2
23,COc1ncc(-c2nccnc2NCc2cccs2)c(OC)n1 [CBK037318],95.9

row,Structure (SMILES),"viability at 28.5 h, 10 µM [%]"
1,COc1cc(CNc2nccnc2-c2ccc(F)cc2)cc(OC)c1OC [CBK037328],90.3
2,OC1CCC(Nc2nc(-c3ccccc3)cn3ccnc23)CC1 (stereo not drawn) [CBK037329],98.5
3,OCc1ccc(-c2nccnc2NCC2CC2)cc1 [CBK037334],86
4,Clc1ccccc1-c1nccnc1NCCc1c[nH]c2ccccc12 [CBK037337],106
5,c1coc(-c2nccnc2NCc2cccs2)c1 [CBK037340],104
6,Oc1cccc(-c2nccnc2NCc2cccs2)c1 [CBK037343],88.8
7,FC(F)(F)c1cccc(-c2nccnc2NCc2ccc3c(c2)OCO3)c1 [CBK037350],94.2
8,COc1ccc(C(=O)OC(C)(C)C)c(-c2nccnc2N2CCCN(C)CC2)c1 [CBK037360],103
9,CCCC/C=C/c1cncc(N2CCN(c3ccccc3C#N)CC2)n1 [CBK037369],93.6
10,CCNc1nc(-c2ccsc2)cn2ccnc12 [CBK037375],87.9
11,c1ccc(CCNc2nccnc2-c2ccncc2)nc1 [CBK037378],89.3
12,N#Cc1ccccc1N1CCN(c2cncc(-c3ccc(CO)cc3)n2)CC1 [CBK037383],86.9
13,Oc1cccc(-c2nccnc2NCCc2ccccn2)c1 [CBK037388],104
14,CC(C)[C@H](CO)Nc1nccnc1-c1ccco1 [CBK037390],99
15,CN(C)C(=O)COc1cccc(Nc2nc(-c3cccc4ccccc34)cn3ccnc23)c1 [CBK037393],82.1
16,COc1cc(Nc2nc(-c3c(OC)cccc3OC)cn3ccnc23)cc(OC)c1OC [CBK037395],95.5
17,COc1cc(CNc2nccnc2-c2cccc(CO)c2)cc(OC)c1 [CBK037403],90.6
18,CC(=O)c1ccc(-c2nccnc2N[C@@H](CO)C(C)C)s1 [CBK037404],100
19,CC(C)[C@H](CO)Nc1nccnc1-c1ccccc1CO [CBK037408],98.2
20,CN(Cc1ccccc1)c1nccnc1-c1ccccc1F [CBK037410],95
21,CN(Cc1ccccc1)c1nccnc1-c1cccnc1 [CBK037414],93.5
22,Fc1ccc(-c2nccnc2NCc2ccncc2)cc1Cl [CBK037422],95.5
23,COc1ccc(-c2cc(C(=O)Nc3cnc4ccccc4c3)cnc2-c2cccc(C)c2)cn1 [CBK037425],89.8

row,Structure (SMILES),"viability at 28.5 h, 10 µM [%]"
1,CCCS(=O)(=O)c1ccc2[nH]c(NC(=O)c3cnc(-c4ccccc4)c(-c4ccncc4)c3)nc2c1 [CBK037426],100
2,Cc1cccc(-c2ncc(C(=O)Nc3nccs3)cc2-c2ccco2)c1 [CBK037427],86.3
3,COc1cccc(NC(=O)c2cnc(-c3ccc(Cl)cc3)c(-c3ccco3)c2)c1OC [CBK037428],103
4,Brc1cn2ccnc2c(NCC2CC2)n1 [CBK037432],93.6
5,COc1ccc(-c2cc(C(=O)NCCc3ccncc3)cnc2-c2ccc(F)cc2)cc1 [CBK037434],91.5
6,O=C(NCC(O)c1ccc2ccccc2c1)c1cnc(-c2ccccc2)c(-c2ccncc2)c1 (stereo not drawn) [CBK037438],91
7,CC(C)[C@@H](CO)Nc1nc(-c2ccc3ccccc3c2)cn2ccnc12 [CBK037445],85.8
8,OCc1cccc(-c2nccnc2NCc2ccncc2)c1 [CBK037446],105
9,Brc1cn2ccnc2c(Nc2ccc3[nH]ccc3c2)n1 [CBK037449],102
10,COc1cccc(CNc2nccnc2-c2ccc(S(C)(=O)=O)cc2)c1OC [CBK037452],104
11,Cc1cccc(CNc2nccnc2-c2ccncc2)c1 [CBK037453],99.3
12,Cc1cccc(-c2ncc(C(=O)NCCCN3CCCC3=O)cc2-c2ccco2)c1 [CBK037455],96.5
13,O=C(Nc1ccc(OC(F)(F)F)cc1)c1cnc(-c2ccc(Cl)cc2)c(-c2ccco2)c1 [CBK037456],106
14,O=C(Nc1ccc(CCO)cc1)c1cnc(-c2ccc(Cl)cc2)c(-c2ccco2)c1 [CBK037457],97.5
15,CCC(CO)NC(=O)c1cnc(-c2cccc(C)c2)c(-c2ccc(OC)cc2)c1 (stereo not drawn) [CBK037460],101
16,CCC(CO)Nc1nc(-c2ccc(O)cc2)cn2ccnc12 (stereo not drawn) [CBK037471],106
17,Clc1ccccc1-c1nccnc1NCc1ccncc1 [CBK037472],89.2
18,CCN(CCO)c1ccc(Nc2nc(Br)cn3ccnc23)cc1 [CBK037475],98.9
19,O=C(Nc1ccc(OC(F)(F)F)cc1)c1cnc(-c2ccc(Cl)cc2)c(-c2ccc(O)cc2)c1 [CBK037485],109
20,COc1ccc(-c2cc(C(=O)Nc3ccc(F)c(Cl)c3)cnc2-c2cccc(C)c2)cc1 [CBK037488],93.3
21,COc1ccc(-c2cc(C(=O)NCCc3ccncc3)cnc2-c2cccc(C)c2)cn1 [CBK037489],99.1
